How the values were obtained:
full-length human RORγt = full-length human RORγt (Homo sapiens (Human), UniProt P51449); assay: RORγt (full-length human) reporter assay, conditions A or B; format: cell-based; conditions: for IC50: HEK293T cells, read-out: RORγt (FL) Reporter Assay A or B, IC50; for inhibition at 6 µM: read-out: RORγt (FL) Reporter Assay A or B, % inhibition @ 6 μM, 6 μM compound concentration; for inhibition at 2 µM: 2 μM compound concentration (**)
From the text: RORγt (Full-Length Human) Reporter Assay:
Cells used in this assay were transiently co-transfected with three different plasmids, one expressing the GAL4-DNA binding domain (DBD)-RORγt fusion protein under control of a CMV promoter (NH2-Gal4-DBD:RORC—COOH in pCMV-BD, Stratagene #211342), and two reporter plasmids—the firefly luciferase reporter under control of a GAL4 promoter (pFR-Luc 2×GAL4) and Renilla luciferase reporter under control of CMV promoter (pRL-CMV, Promega #E2261). […] HEK293T cells were plated at 35,000 per well in 96-well plate in medium of DMEM with 10% FBS. After 18-22 hours incubation, the transfection was carried out by using a PEI solution with 170.5 ng total DNA/well (50 ng pCMV-BD-ROR plus 20 ng of pFR-Luc reporter and 0.5 ng of pRL-CMV reporter plus 100 ng Carrier DNA (Clontech #630440) for each well). 4-6 hours after transfection, cells were treated with compounds for overnight in the medium with final concentration of FBS 1.3% and DMSO 0.1%. After overnight (16 to 20 hours) incubation, media were removed and cells were lysed with […] Glo Lysis Buffer (Promega) for 10-15 minutes followed by 10 minute incubation with 50 μL Dual Glo reagent (Promega) at room temperature. Firefly luciferase luminescence was measured using a BMG Pherastar plate reader. To each well, 50 μL Stop and Glo reagent was added and incubated for 10 minutes at room temperature. Renilla luminescence was measured using a BMG Pherastar plate reader. To calculate the effect of compounds on RORγt activity, firefly values were normalized against values of DMSO only and values of reference compound at saturating concentration, then further normalized against Renilla signals. IC50s were generated by plotting final Renilla normalized data against compound concentration and percent inhibition was calculated against DMSO control.
Cells used in this assay were transiently co-transfected with three different plasmids, one expressing the GAL4-DNA binding domain (DBD)-RORγt fusion protein under control of a CMV promoter (NH2-Gal4-DBD:RORC—COOH in pCMV-BD, Stratagene #211342), and two reporter plasmids—the firefly luciferase reporter under control of a GAL4 promoter (pFR-Luc 2×GAL4) and Renilla luciferase reporter under control of CMV promoter (pRL-CMV, Promega #E2261). […] HEK293T cells were plated at 8750 cells per well in 384-well plate in medium of DMEM with 10% FBS. After 18-22 hours incubation, the transfection was carried out by using a PEI solution with 42.6 ng total DNA/well (12.5 ng pCMV-BD-ROR plus 5 ng of pFR-Luc reporter and 0.125 ng of pRL-CMV reporter plus 25 ng Carrier DNA (Clontech #630440) for each well). 4-6 hours after transfection, cells were treated with compounds for overnight in the medium with final concentration of FBS 1.3% and DMSO 0.1%. After overnight (16 to 20 hours) incubation, media were removed and cells were lysed with 20 μL Glo Lysis Buffer (Promega) for 10-15 minutes followed by 10 minute incubation with 20 μL Dual Glo reagent (Promega) at room temperature. Firefly luciferase luminescence was measured using a BMG Pherastar plate reader. To each well, 20 μL Stop and Glo reagent was added and incubated for 10 minutes at room temperature. Renilla luminescence was measured using a BMG Pherastar plate reader. To calculate the effect of compounds on RORγt activity, firefly values were normalized against values of DMSO only and values of reference compound at saturating concentration, then further normalized against Renilla signals. IC50s were generated by plotting final Renilla normalized data against compound concentration and percent inhibition was calculated against DMSO control.

[1] = target: human RORγt ligand binding domain (RORγt LBD) (Homo sapiens (Human), UniProt P51449); assay: RORγt ThermoFluor assay
From the text: ThermoFluor® is a fluorescence based assay that estimates ligand binding affinities by measuring the effect of a ligand on protein thermal stability (Pantoliano, M. W., Petrella, E. C., Kwasnoski, J. D., Lobanov, V. S., Myslik, J., Graf, E., Carver, T., Asel, E., Springer, B. A., Lane, P., and Salemme, F. R. (2001) High-density miniaturized thermal shift assays as a general strategy for drug discovery. J Biomol Screen 6, 429-40, and Matulis, D., Kranz, J. K., Salemme, F. R., and Todd, M. J. (2005) Thermodynamic stability of carbonic anhydrase: measurements of binding affinity and stoichiometry using ThermoFluor. Biochemistry 44, 5258-66). This approach is applicable to a wide variety of systems, and rigorous in theoretical interpretation through quantitation of equilibrium binding constants (KD).
The shift in the melting point described as a ΔTm is proportional to the concentration and affinity of the ligand.
RORγt ThermoFluor® Assay Construct
Nucleotides 850-1635 (SEQ ID NO:2) coding for the wild type human RORγt ligand binding domain (RORγt LBD) were cloned into the pHIS 1 vector, a modified pET E. coli expression vector (Accelagen, San Diego), containing an in-frame N-terminal His-tag and a TurboTEV protease cleavage site (ENLYFQG, SEQ ID NO:3) upstream of the cloned insert sequence. The amino acid sequence for the RORγt construct used in the Thermofluor® assay is shown as SEQ ID NO:4.
ThermoFluor® experiments were carried out using instruments owned by Janssen Research and Development, L.L.C. through its acquisition of 3-Dimensional Pharmaceuticals, Inc. 1,8-ANS (Invitrogen) was used as a fluorescent dye. Protein and compound solutions are dispensed into black 384-well polypropylene PCR microplates (Abgene) and overlayed with silicone oil (1 μL, Fluka, type DC 200) to prevent evaporation.
Bar-coded assay plates are robotically loaded onto a thermostatically controlled PCR-type thermal block and then heated at a typical ramp-rate of 1° C./min for all experiments. Fluorescence was measured by continuous illumination with UV light (Hamamatsu LC6) supplied via fiber optic and filtered through a band-pass filter (380-400 nm; >6 OD cutoff). Fluorescence emission of the entire 384-well plate was detected by measuring light intensity using a CCD camera (Sensys, Roper Scientific) filtered to detect 500±25 nm, resulting in simultaneous and independent readings of all 384 wells. Images were collected at each temperature, and the sum of the pixel intensity in a given area of the assay plate was recorded versus temperature. Reference wells contained RORγt without compounds, and the assay conditions were as follows: • 0.065 mg/mL RORγt • 60 μM 1,8-ANS • 100 mM Hepes, pH 7.0 • 10 mM NaCl • 2.5 mM GSH • 0.002% Tween-20
Project compounds were arranged in a pre-dosed mother plate (Greiner Bio-one) wherein compounds are serially diluted in 100% DMSO by 1:2 from a high concentration of 10 mM over 12 columns within a series (column 12 is a reference well containing DMSO, no compound). The compounds were robotically dispensed directly into assay plates (1×=46 nL) using a Hummingbird capillary liquid handling instrument (Digilab). Following compound dispense, protein and dye in buffer was added to achieve the final assay volume of 3 μL, followed by 1 μL of silicone oil.
The binding affinity was estimated as described previously (Matulis, D., Kranz, J. K., Salemme, F. R., and Todd, M. J. (2005) Thermodynamic stability of carbonic anhydrase: measurements of binding affinity and stoichiometry using ThermoFluor®. Biochemistry 44, 5258-66) using the following thermodynamic parameters of protein unfolding: […]

[2] = read-out: RORγt (FL) Reporter Assay A or B, % inhibition

Chain of full-length human RORγt (P51449 other isoform, or with tags, fused parts or gaps): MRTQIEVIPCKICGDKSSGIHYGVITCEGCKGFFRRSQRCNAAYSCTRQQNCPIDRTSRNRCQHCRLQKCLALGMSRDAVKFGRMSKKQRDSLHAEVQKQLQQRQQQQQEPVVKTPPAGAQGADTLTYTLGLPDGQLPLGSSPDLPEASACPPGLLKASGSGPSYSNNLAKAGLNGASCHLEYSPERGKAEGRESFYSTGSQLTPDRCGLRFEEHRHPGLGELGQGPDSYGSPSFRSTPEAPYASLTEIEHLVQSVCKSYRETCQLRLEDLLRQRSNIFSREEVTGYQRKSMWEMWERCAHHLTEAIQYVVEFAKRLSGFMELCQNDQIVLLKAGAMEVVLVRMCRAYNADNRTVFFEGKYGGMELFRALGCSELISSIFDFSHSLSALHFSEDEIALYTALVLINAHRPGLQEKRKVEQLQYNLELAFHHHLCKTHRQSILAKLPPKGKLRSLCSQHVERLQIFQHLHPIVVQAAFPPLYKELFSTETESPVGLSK
Chain of human RORγt ligand binding domain (RORγt LBD) (P51449 other isoform, or with tags, fused parts or gaps): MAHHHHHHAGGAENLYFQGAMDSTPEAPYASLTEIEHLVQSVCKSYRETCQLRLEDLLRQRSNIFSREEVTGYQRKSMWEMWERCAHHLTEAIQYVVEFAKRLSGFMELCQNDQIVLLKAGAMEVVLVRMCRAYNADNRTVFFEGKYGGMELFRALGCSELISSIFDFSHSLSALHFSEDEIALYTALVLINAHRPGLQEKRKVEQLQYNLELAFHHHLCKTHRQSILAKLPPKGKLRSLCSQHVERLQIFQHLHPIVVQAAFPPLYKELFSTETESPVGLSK

inhibition at 0.07 µM (full-length human RORγt; 0.07 μM compound concentration (*******), read-out: RORγt (FL) Reporter Assay A or B, % inhibition) [%] | IC50 (full-length human RORγt) [nM] | Kd [1] [nM] | inhibition at 6 µM (full-length human RORγt) [%] | inhibition at 2 µM (full-length human RORγt; [2]) [%] | inhibition at 3 µM (full-length human RORγt; 3 μM compound concentration (*), read-out: RORγt (FL) Reporter Assay A or B, % inhibition) [%] | Structure (SMILES) | inhibition at 0.67 µM (full-length human RORγt; read-out: RORγt (FL) Reporter Assay A or B, % inhibition, 0.67 μM compound concentration (****)) [%]
90 | 1.8 | 3.3 |  |  |  | CCc1nc(C(=O)NC[C@H]2CC[C@H](S(C)(=O)=O)CC2)c(C)n1-c1ccc(CC(C(F)(F)F)C(F)(F)F)cc1F [Example 110, 2-Ethyl-1-(2-fluoro-4-(3,3,3-trifluoro-2-(trifluoromethyl)propyl)phenyl)-5-methyl-N-(((r,4r)-4-(methylsulfonyl)cyclohexyl)methyl)-1H-imidazole-4-carboxamide] | 
 | 190 | 100 | 74 |  |  | CCc1nc(C(=O)NC[C@H]2CC[C@H](S(C)(=O)=O)CC2)c(C#N)n1-c1ccc(CCC(F)(F)F)cc1OC(F)(F)F [Example 115, 5-Cyano-2-ethyl-N-(((1r,4r)-4-(methylsulfonyl)cyclohexyl)methyl)-1-(2-(trifluoromethoxy)-4-(3,3,3-trifluoropropyl)phenyl)-1H-imidazole-4-carboxamide] | 
 | 340 | 100 | 99 |  |  | CCc1nc(C(=O)NC[C@]2(O)CC[C@@H](S(C)(=O)=O)CC2)c(Cl)n1-c1c(F)cc(CC(O)(C(F)(F)F)C(F)(F)F)cc1F [Example 108, 5-Chloro-1-(2,6-difluoro-4-(3,3,3-trifluoro-2-hydroxy-2-(trifluoromethyl)propyl)phenyl)-2-ethyl-N-(((1s,4s)-1-hydroxy-4-(methylsulfonyl)cyclohexyl)methyl)-1H-imidazole-4-carboxamide] | 
 | 11 | 1.8 |  | 99 |  | CCc1nc(C(=O)NC[C@H]2CC[C@H](S(C)(=O)=O)CC2)c(Cl)n1-c1ncc(CC(C)(C)C(F)(F)F)cc1OC [Example 125, 5-Chloro-2-ethyl-1-(3-methoxy-5-(3,3,3-trifluoro-2,2-dimethylpropyl)pyridin-2-yl)-N-(((1r,4r)-4-(methylsulfonyl)cyclohexyl)methyl)-1H-imidazole-4-carboxamide] | 
 | 110 | 28 |  |  | 105 | CCc1nc(C(=O)NC[C@@H]2CC[C@@H](S(C)(=O)=O)C[C@H]2O)c(Cl)n1-c1ncc(CC(C(F)(F)F)C(F)(F)F)cc1OC(F)F (stereo in doubt) [Example 65, 5-Chloro-1-(3-(difluoromethoxy)-5-(3,3,3-trifluoro-2-(trifluoromethyl)propyl)pyridin-2-yl)-2-ethyl-N-(((1S*,2R*,4R*)-2-hydroxy-4-(methylsulfonyl)cyclohexyl)methyl)-1H-imidazole-4-carboxamide] | 
 | 33 | 33 |  | 43 |  | CCc1nc(C(=O)NC[C@]2(O)CC[C@@H](S(C)(=O)=O)CC2)c(Cl)n1-c1ccc(CCCC(F)(F)F)cc1F [Example 98, 5-Chloro-2-ethyl-1-(2-fluoro-4-(4,4,4-trifluorobutyl)phenyl)-N-(((1s,4s)-1-hydroxy-4-(methylsulfonyl)cyclohexyl)methyl)-1H-imidazole-4-carboxamide] | 
 | 33 | 5.3 | 104 |  |  | CCc1nc(C(=O)NC[C@]2(O)CC[C@@H](S(C)(=O)=O)CC2)c(C#N)n1-c1ccc(CC(C)(C)C(F)(F)F)cc1OC(F)F [Example 24, 5-Cyano-1-(2-(difluoromethoxy)-4-(3,3,3-trifluoro-2,2-dimethylpropyl)phenyl)-2-ethyl-N-(((1s,4s)-1-hydroxy-4-(methylsulfonyl)cyclohexyl)methyl)-1H-imidazole-4-carboxamide] | 
 | 320 | 83 | 83 |  |  | CCc1nc(C(=O)NC[C@]2(O)CC[C@@H](S(C)(=O)=O)CC2)c(F)n1-c1ccc(CCC(F)(F)F)cc1OC [Example 14, 2-Ethyl-5-fluoro-N-(((1s,4s)-1-hydroxy-4-(methylsulfonyl)cyclohexyl)methyl)-1-(2-methoxy-4-(3,3,3-trifluoropropyl)phenyl)-1H-imidazole-4-carboxamide] | 

Structure (SMILES) | inhibition at 0.07 µM (full-length human RORγt; 0.07 μM compound concentration (*******), read-out: RORγt (FL) Reporter Assay A or B, % inhibition) [%] | IC50 (full-length human RORγt) [nM] | Kd [1] [nM] | inhibition at 6 µM (full-length human RORγt) [%] | inhibition at 2 µM (full-length human RORγt; [2]) [%] | inhibition at 3 µM (full-length human RORγt; 3 μM compound concentration (*), read-out: RORγt (FL) Reporter Assay A or B, % inhibition) [%] | inhibition at 0.67 µM (full-length human RORγt; read-out: RORγt (FL) Reporter Assay A or B, % inhibition, 0.67 μM compound concentration (****)) [%]
CCc1nc(C(=O)NC[C@H]2CC[C@H](S(C)(=O)=O)CC2)c(Cl)n1-c1c(F)cc(C[C@@H](C)C(F)(F)F)cc1F (single isomer, unassigned) [Example 87, 5-Chloro-1-(2,6-difluoro-4-((R*)-3,3,3-trifluoro-2-methylpropyl)phenyl)-2-ethyl-N-(((1r,4R)-4-(methylsulfonyl)cyclohexyl)methyl)-1H-imidazole-4-carboxamide] |  | 18 | 3.8 |  |  |  | 66

Source: US11345666B2, “Phenyl and pyridinyl substituted imidazoles as modulators of RORγT” (Janssen Pharmaceutica NV, priority 2018, dated 2022)
